Assay results taken from US20090263410A1, “USE OF TGF-B1 INHIBITOR PEPTIDES IN THE PREPARATION OF AN IMMUNE RESPONSE MODULATING AGENT” (Proyecto De Biomedicina Cima, S.L., priority 2005, published 2009).

Test system: dendritic cells derived from splenocytes
Assay: Surface markers of splenocyte-derived dendritic cells by flow cytometry
Format: cell-based, C57 mouse
Settings: incubation 72 hours; p144 50 μg/ml or anti (TGF-β) antibody 20 μg/ml; medium with GM-CSF+TGF-β1
Method: After sacrificing an 8-week old male C57 mouse, its spleen was extracted in sterile conditions and it was homogenised on a plate with clean medium to produce a cell suspension. The cells were centrifuged for 5 minutes at 1000 rpm and the cell sediment obtained was resuspended with 1 ml/spleen of ACK lysis solution (0.15M NH4Cl, 1 mM KHCO3, […] sodium salt-EDTA solution, pH 7.2-7.4) for 1 minute at 37° C. Next, the cells were centrifuged and washed with 10 ml of cold R10 medium (RPMI-1640, 10% FBS, Glutamine, 2×10^−5 M 2-Mercaptoethanol) to centrifuge and wash once more. Finally, the cells were resuspended in 50 ml of R10 medium. 6-well plates were prepared (Costar #3471) treating them with 1 ml per well of R10 medium to differentiate splenocytes from dendritic cells [R10+10 ng/ml of mouse GM-CSF (Peprotec, EC LTD, London, UK)+1 ng/ml of TGF-β1 (RD Systems, Minneapolis, USA)], for 15 minutes at room temperature. Next, 2 ml of the cell suspension were added to each well and they were incubated at 37° C. and 5% CO2. During the first weeks, the medium was changed twice, by the elimination of 1 ml of supernatant and the addition of 1 ml of fresh medium (R10+GM-CSF+TGF-β1) for dendritic cells. After these two weeks, the medium was separated. 1 ml per well of dissociation medium in enzyme-free BPS (GIBCO BRL) was added to the plates, and the medium was incubated at 37° C., then it was removed and 2 ml of tepid medium (R10+GM-CSF+TGF-β1) was added. Next, the cells were lifted with slow pipetting and the lifted cells were centrifuged at 1000 rpm and they were resuspended in fresh medium (R10+GM-CSF+TGF-β1). The cells thus obtained can be reamplified by seeding on a plate, repeating the initial process. […]

p144: peptide inhibiting TGF-β1 whose amino acid sequence corresponds to SEQ ID NO: 1 (TSLDASIIWAMMQN; Synthetic Construct from human TGB-Beta1 type III receptor.Domain730-743)
negative effect: CD11c expression (fluorescence level) | CD80 expression (fluorescence level) | MHC I expression (fluorescence level)
